Measured values reported in US10294202B2, “Pyrrolidinones as herbicides” (FMC Corporation, priority 2013, dated 2019).

Assays:
Experiment in all cases: Test A pre-/postemergence herbicide test
barnyardgrass = format: in vivo, Echinochloa crus-galli; settings: for Barnyardgrass plant response rating: Preemergence, visual rating on 0 to 100 scale (0 no effect, 100 complete control)
Source text: (§1) Seeds of plant species selected from bamyardgrass (Echinochloa crus-galli), kochia (Kochia scoparia), ragweed (common ragweed, Ambrosia elatior), ryegrass, Italian (Italian ryegrass, Lolium multiflorum), crabgrass, large (large crabgrass Digitaria sanguinalis), giant foxtail (Setaria faberii), morningglory (Ipomoea spp.), pigweed (Amaranthus retroflexus), velvetleaf (Abutilon theophrasti), wheat (Triticum aestivum), and corn (Zea mays) were planted into a blend of loam soil and sand and treated preemergence with a directed soil spray using test chemicals formulated in a non-phytotoxic solvent mixture which included a surfactant. At the same time, plants selected from these crop and weed species and also blackgrass (Alopecurus myosuroides), and galium (catchweed bedstraw, Galium aparine) were planted in pots containing the same blend of loam soil and sand and treated with postemergence applications of test chemicals formulated in the same manner. Plants ranged in height from 2 to 10 cm and were in the one- to two-leaf stage for the postemergence treatment. Treated plants and untreated controls were maintained in a greenhouse for approximately 10 days, after which time all treated plants were compared to untreated controls and visually evaluated for injury. Plant response ratings, summarized in Table A, are based on a 0 to 100 scale where 0 is no effect and 100 is complete control. A dash (-) response means no test result.

crabgrass, large = format: in vivo, Digitaria sanguinalis; settings: for Crabgrass, Large plant response rating: Preemergence, visual rating on 0 to 100 scale (0 no effect, 100 complete control)
Source text: as §1

giant foxtail = format: in vivo, Setaria faberii; settings: for Foxtail, Giant plant response rating: Preemergence, visual rating on 0 to 100 scale (0 no effect, 100 complete control)
Source text: as §1

morningglory = format: in vivo, Ipomoea spp.; settings: for Morningglory plant response rating: Preemergence, visual rating on 0 to 100 scale (0 no effect, 100 complete control)
Source text: as §1

pigweed = format: in vivo, Amaranthus retroflexus; settings: for Pigweed plant response rating: Preemergence, visual rating on 0 to 100 scale (0 no effect, 100 complete control)
Source text: as §1

velvetleaf = format: in vivo, Abutilon theophrasti; settings: for Velvetleaf plant response rating: Preemergence, visual rating on 0 to 100 scale (0 no effect, 100 complete control)
Source text: as §1

wheat = format: in vivo, Triticum aestivum; settings: for Wheat plant response rating: Preemergence, visual rating on 0 to 100 scale (0 no effect, 100 complete control)
Source text: as §1

corn = format: in vivo, Zea mays; settings: for Corn plant response rating: Preemergence, visual rating on 0 to 100 scale (0 no effect, 100 complete control)
Source text: as §1

[1] = Postemergence, 125 g ai/ha, 0 to 100 scale, 0 no effect, 100 complete control
[2] = Postemergence, 500 g ai/ha, 0 to 100 scale (0 no effect, 100 complete control)
[3] = preemergence, 500 g ai/ha, 0 to 100 scale (0 no effect, 100 complete control)
[4] = preemergence, 500 g ai/ha, 0 to 100 scale
[5] = Postemergence, 1000 g ai/ha, 0 to 100 scale (0 no effect, 100 complete control)
[6] = preemergence, 1000 g ai/ha, 0 to 100 scale

Structure (SMILES)	Plant response rating, Barnyardgrass (barnyardgrass; [1])	Plant response rating, Barnyardgrass (barnyardgrass; [2])	Barnyardgrass plant response rating (barnyardgrass; 125 g ai/ha)	Plant response rating, Barnyardgrass (barnyardgrass; [3])	Plant response rating, Crabgrass, Large (crabgrass, large; [1])	Plant response rating, Crabgrass, Large (crabgrass, large; [2])	Crabgrass, Large plant response rating (crabgrass, large; 125 g ai/ha)	Plant response rating, Crabgrass, Large (crabgrass, large; [4])	Plant response rating, Foxtail, Giant (giant foxtail; [1])	Plant response rating, Foxtail, Giant (giant foxtail; [2])	Foxtail, Giant plant response rating (giant foxtail; 125 g ai/ha)	Plant response rating, Foxtail, Giant (giant foxtail; [4])	Plant response rating, Morningglory (morningglory; [1])	Plant response rating, Morningglory (morningglory; [2])	Morningglory plant response rating (morningglory; 125 g ai/ha)	Plant response rating, Morningglory (morningglory; [4])	Plant response rating, Pigweed (pigweed; [1])	Plant response rating, Pigweed (pigweed; [2])	Pigweed plant response rating (pigweed; 125 g ai/ha)	Plant response rating, Pigweed (pigweed; [4])	also measured
CC1NC(=O)C(C(=O)Nc2ccccc2C(F)(F)F)C1c1ccc(F)c(F)c1 (mixture of isomers) [Compound 9]	30	50	20	60	40	70	80	90	0	70	70	90	0	0	0	0	0	0	0	0	Plant response rating, Velvetleaf (velvetleaf; [1]): 0; Plant response rating, Velvetleaf (velvetleaf; [2]): 0; Velvetleaf plant response rating (velvetleaf; 125 g ai/ha): 0; Plant response rating, Velvetleaf (velvetleaf; [4]): 0; Plant response rating, Wheat (wheat; [1]): 0; Plant response rating, Wheat (wheat; [2]): 0; Wheat plant response rating (wheat; 125 g ai/ha): 0; Plant response rating, Wheat (wheat; [4]): 0; Plant response rating, Corn (corn; [1]): 0; Plant response rating, Corn (corn; [2]): 0; Corn plant response rating (corn; 125 g ai/ha): 0; Plant response rating, Corn (corn; [4]): 0
O=C1NCC(c2ccc(F)c(F)c2)C1C(=O)Nc1cccc(C(F)(F)F)c1 (racemic) [Compound 13]	0	30	0	50	0	60	50	80	0	0	0	30	0	0	0	0	0	0	0	0	Plant response rating, Velvetleaf (velvetleaf; [1]): 0; Plant response rating, Velvetleaf (velvetleaf; [2]): 0; Velvetleaf plant response rating (velvetleaf; 125 g ai/ha): 0; Plant response rating, Velvetleaf (velvetleaf; [4]): 0; Plant response rating, Wheat (wheat; [1]): 0; Plant response rating, Wheat (wheat; [2]): 0; Wheat plant response rating (wheat; 125 g ai/ha): 0; Plant response rating, Wheat (wheat; [4]): 0; Plant response rating, Corn (corn; [1]): 0; Plant response rating, Corn (corn; [2]): 0; Corn plant response rating (corn; 125 g ai/ha): 0; Plant response rating, Corn (corn; [4]): 0
O=C1NCC(c2ccccc2F)C1C(=O)Nc1ccccc1F (racemic) [Compound 85]	0	20	0	30	0	50	30	80	0	0	0	50	0	0	0	0	0	0	0	0	Plant response rating, Velvetleaf (velvetleaf; [1]): 0; Plant response rating, Velvetleaf (velvetleaf; [2]): 0; Velvetleaf plant response rating (velvetleaf; 125 g ai/ha): 0; Plant response rating, Velvetleaf (velvetleaf; [4]): 0; Plant response rating, Wheat (wheat; [1]): 0; Plant response rating, Wheat (wheat; [2]): 0; Wheat plant response rating (wheat; 125 g ai/ha): 0; Plant response rating, Wheat (wheat; [4]): 0; Plant response rating, Corn (corn; [1]): 0; Plant response rating, Corn (corn; [2]): 0; Corn plant response rating (corn; 125 g ai/ha): 0; Plant response rating, Corn (corn; [4]): 0
O=C1NCC(c2ccccc2Cl)C1C(=O)Nc1ccccc1F (racemic) [Compound 88]	0	40	0	50	0	60	40	80	0	0	0	30	0	0	0	0	0	0	0	30	Plant response rating, Velvetleaf (velvetleaf; [1]): 0; Plant response rating, Velvetleaf (velvetleaf; [2]): 0; Velvetleaf plant response rating (velvetleaf; 125 g ai/ha): 0; Plant response rating, Velvetleaf (velvetleaf; [4]): 0; Plant response rating, Wheat (wheat; [1]): 0; Plant response rating, Wheat (wheat; [2]): 0; Wheat plant response rating (wheat; 125 g ai/ha): 0; Plant response rating, Wheat (wheat; [4]): 0; Plant response rating, Corn (corn; [1]): 0; Plant response rating, Corn (corn; [2]): 0; Corn plant response rating (corn; 125 g ai/ha): 0; Plant response rating, Corn (corn; [4]): 0
O=C1NCC(c2ccc(Cl)cc2Cl)C1C(=O)Nc1ccccc1F (racemic) [Compound 91]	0	20	0	20	30	50	40	60	0	20	0	40	0	0	0	0	0	0	0	0	Plant response rating, Velvetleaf (velvetleaf; [1]): 0; Plant response rating, Velvetleaf (velvetleaf; [2]): 0; Velvetleaf plant response rating (velvetleaf; 125 g ai/ha): 0; Plant response rating, Velvetleaf (velvetleaf; [4]): 0; Plant response rating, Wheat (wheat; [1]): 0; Plant response rating, Wheat (wheat; [2]): 0; Wheat plant response rating (wheat; 125 g ai/ha): 0; Plant response rating, Wheat (wheat; [4]): 0; Plant response rating, Corn (corn; [1]): 0; Plant response rating, Corn (corn; [2]): 0; Corn plant response rating (corn; 125 g ai/ha): 0; Plant response rating, Corn (corn; [4]): 0
Cn1ccnc1C1CNC(=O)C1C(=O)Nc1cccc(F)c1F (racemic) [Compound 252]																					Plant response rating, Barnyardgrass (barnyardgrass; [5]): 0; Plant response rating, Barnyardgrass (barnyardgrass; preemergence, 1000 g ai/ha, 0 to 100 scale (0 no effect, 100 complete control)): 20; Plant response rating, Crabgrass, Large (crabgrass, large; [5]): 0; Plant response rating, Crabgrass, Large (crabgrass, large; [6]): 40; Plant response rating, Foxtail, Giant (giant foxtail; [5]): 0; Plant response rating, Foxtail, Giant (giant foxtail; [6]): 20; Plant response rating, Morningglory (morningglory; [5]): 0; Plant response rating, Morningglory (morningglory; [6]): 0; Plant response rating, Pigweed (pigweed; [5]): 0; Plant response rating, Velvetleaf (velvetleaf; [5]): 0; Plant response rating, Velvetleaf (velvetleaf; [6]): 0; Plant response rating, Wheat (wheat; [5]): 0; Plant response rating, Wheat (wheat; [6]): 0; Plant response rating, Corn (corn; [5]): 0; Plant response rating, Corn (corn; [6]): 0
